# Measured values as given in patent publication US11643388B2, “Inhibitors of alpha 2 beta 1 integrin and methods of use thereof” (The Regents of the University of California, priority 2020, dated 2023).
# Target: α2β1 (Homo sapiens, UniProt P05556+P17301)
# Assay: α2β1 cell adhesion assay
# Type: cell-based
# α2β1, sequence (P17301 30-1181): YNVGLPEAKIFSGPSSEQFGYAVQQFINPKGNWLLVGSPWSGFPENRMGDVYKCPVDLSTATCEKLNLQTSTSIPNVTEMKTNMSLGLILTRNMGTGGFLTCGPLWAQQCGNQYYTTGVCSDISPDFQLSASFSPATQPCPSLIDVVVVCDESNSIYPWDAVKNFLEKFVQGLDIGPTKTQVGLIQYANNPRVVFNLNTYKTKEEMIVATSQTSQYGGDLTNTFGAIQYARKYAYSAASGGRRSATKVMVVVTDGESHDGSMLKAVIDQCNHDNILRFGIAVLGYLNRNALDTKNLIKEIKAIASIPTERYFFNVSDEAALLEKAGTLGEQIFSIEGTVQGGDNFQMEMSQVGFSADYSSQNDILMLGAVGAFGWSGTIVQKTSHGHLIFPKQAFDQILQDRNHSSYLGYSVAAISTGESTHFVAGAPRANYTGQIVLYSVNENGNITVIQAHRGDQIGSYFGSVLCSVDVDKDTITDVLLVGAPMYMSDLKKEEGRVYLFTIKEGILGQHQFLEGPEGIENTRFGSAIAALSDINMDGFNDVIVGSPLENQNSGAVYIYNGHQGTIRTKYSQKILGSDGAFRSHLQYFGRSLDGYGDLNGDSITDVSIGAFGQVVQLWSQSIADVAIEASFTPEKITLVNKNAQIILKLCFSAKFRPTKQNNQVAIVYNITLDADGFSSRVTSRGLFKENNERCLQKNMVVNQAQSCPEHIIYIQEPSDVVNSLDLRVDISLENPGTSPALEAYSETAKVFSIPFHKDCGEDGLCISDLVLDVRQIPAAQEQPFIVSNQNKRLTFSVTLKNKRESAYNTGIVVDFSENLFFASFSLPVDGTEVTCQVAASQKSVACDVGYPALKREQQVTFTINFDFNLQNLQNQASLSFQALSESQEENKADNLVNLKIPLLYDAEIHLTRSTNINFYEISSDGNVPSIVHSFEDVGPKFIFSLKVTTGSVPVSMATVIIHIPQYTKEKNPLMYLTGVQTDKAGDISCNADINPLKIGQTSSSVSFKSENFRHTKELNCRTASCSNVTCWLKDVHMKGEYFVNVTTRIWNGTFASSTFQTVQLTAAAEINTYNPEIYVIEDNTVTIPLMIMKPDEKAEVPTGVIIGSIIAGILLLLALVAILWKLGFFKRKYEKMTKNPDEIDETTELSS
# α2β1, sequence (P05556 21-798): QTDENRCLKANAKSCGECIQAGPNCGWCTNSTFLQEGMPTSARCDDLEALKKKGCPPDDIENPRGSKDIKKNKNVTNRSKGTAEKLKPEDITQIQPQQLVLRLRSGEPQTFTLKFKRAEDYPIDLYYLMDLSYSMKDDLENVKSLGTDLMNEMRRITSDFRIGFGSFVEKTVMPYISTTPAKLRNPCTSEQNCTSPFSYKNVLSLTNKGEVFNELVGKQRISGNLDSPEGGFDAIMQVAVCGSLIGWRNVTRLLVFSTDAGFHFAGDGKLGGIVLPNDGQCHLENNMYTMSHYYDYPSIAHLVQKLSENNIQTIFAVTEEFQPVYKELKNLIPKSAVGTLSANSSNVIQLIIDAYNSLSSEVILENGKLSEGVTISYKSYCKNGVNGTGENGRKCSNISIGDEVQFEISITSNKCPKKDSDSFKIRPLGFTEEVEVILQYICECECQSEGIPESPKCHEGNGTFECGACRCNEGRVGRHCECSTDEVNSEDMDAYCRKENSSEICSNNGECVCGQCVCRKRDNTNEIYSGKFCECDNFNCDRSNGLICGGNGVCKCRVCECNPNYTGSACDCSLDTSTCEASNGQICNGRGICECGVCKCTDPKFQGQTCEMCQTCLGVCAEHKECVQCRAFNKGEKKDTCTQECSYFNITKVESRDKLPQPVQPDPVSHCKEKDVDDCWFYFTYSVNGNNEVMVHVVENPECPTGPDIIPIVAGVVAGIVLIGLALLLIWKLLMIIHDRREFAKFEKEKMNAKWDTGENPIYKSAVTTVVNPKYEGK
row,IC50 [nM],SMILES
1,1000 to 5000,"CCOC(=O)[C@H](CNC(=O)N[C@@H]1CCc2ccccc21)NC(=O)c1c(Cl)cc(C(=O)NCc2cccc(Cl)c2)cc1Cl [SU15210-0280, (S)-ethyl 2-(2,6-dichloro-4-(3-chlorobenzylcarbamoyl)benzamido)-3-(3-((R)-2,3-dihydro-1H-inden-1-yl)ureido)propanoate]"
2,< 500,"O=C(NC[C@H](NC(=O)c1c(Cl)cc(C(=O)NCc2cccc(F)c2)cc1Cl)C(=O)O)N[C@@H]1CCc2ccccc21 [SU15210-0289, (S)-2-(2,6-dichloro-4-(3-fluorobenzylcarbamoyl)benzamido)-3-(3-((R)-2,3-dihydro-1H-inden-1-yl)ureido)propanoic Acid]"
3,< 500,"COc1cccc(CNC(=O)c2cc(Cl)c(C(=O)N[C@@H](CNC(=O)N[C@@H]3CCc4ccccc43)C(=O)O)c(Cl)c2)c1 [SU15210-0290-01, (S)-2-(2,6-dichloro-4-(3-methoxybenzylcarbamoyl)benzamido)-3-(3-((R)-2,3-dihydro-1H-inden-1-yl)ureido)propanoic Acid]"
4,< 500,"O=C(NC[C@H](NC(=O)c1c(Cl)cc(C(=O)NCc2ccc(Cl)c(Cl)c2)cc1Cl)C(=O)O)N[C@@H]1CCc2ccccc21 [SU15210-0291, (S)-2-(2,6-dichloro-4-(3,4-dichlorobenzylcarbamoyl)benzamido)-3-(3-((R)-2,3-dihydro-1H-inden-1-yl)ureido)propanoic Acid]"

# The next lines start with the molecule.
row,SMILES,IC50 [nM]
1,"CN(Cc1ccccc1)C(=O)NC[C@H](NC(=O)c1c(Cl)cc2c(c1Cl)CCN(Cc1cccc(Cl)c1)C2=O)C(=O)O [SU15210-0242-01, (S)-3-(3-benzyl-3-methylureido)-2-(5,7-dichloro-2-(3-chlorobenzyl)-1-oxo-1,2,3,4-tetrahydroisoquinoline-6-carboxamido)propanoic Acid]",< 500
2,"O=C(NC[C@H](NC(=O)c1c(Cl)cc2c(c1Cl)CCN(Cc1cccc(Cl)c1)C2=O)C(=O)O)N[C@@H]1CCc2ccccc21 [SU15210-0243-01, (2S)-2-[[5,7-dichloro-2-[(3-chlorophenyl)methyl]-1-oxo-3,4-dihydroisoquinoline-6-carbonyl]amino]-3-[[(1R)-indan-1-yl]carbamoylamino]propanoic Acid]",> 5000
3,O=C(NC[C@H](NC(=O)c1c(Cl)cc2c(c1Cl)CCN(Cc1ccc(Cl)cc1)C2=O)C(=O)O)N[C@@H]1CCc2ccccc21 [SU15210-0244-01],> 5000
4,"CN(Cc1ccccc1)C(=O)NC[C@H](NC(=O)c1c(Cl)cc2c(c1Cl)CCN(Cc1ccccc1)C2=O)C(=O)O [SU15210-0245-01, (2S)-2-[(2-benzyl-5,7-dichloro-1-oxo-3,4-dihydroisoquinoline-6-carbonyl)amino]-3-[[benzyl(methyl)carbamoyl]amino]propanoic Acid]",> 5000
5,"CN(Cc1ccccc1)C(=O)NC[C@H](NC(=O)c1c(Cl)cc2c(c1Cl)CCN(CC1CC1)C2=O)C(=O)O [SU15210-0251, (2S)-3-[[benzyl(methyl)carbamoyl]amino]-2-[[5,7-dichloro-2-(cyclopropylmethyl)-1-oxo-3,4-dihydroisoquinoline-6-carbonyl]amino]propanoic Acid]",1000 to 5000
6,"CN(Cc1ccccc1)C(=O)NC[C@H](NC(=O)c1c(Cl)cc2c(c1Cl)CCN(CC#CC1CC1)C2=O)C(=O)O [SU15210-0265, (S)-3-(3-benzyl-3-methylureido)-2-(5,7-dichloro-2-(3-cyclopropylprop-2-ynyl)-1-oxo-1,2,3,4-tetrahydroisoquinoline-6-carboxamido)propanoic Acid]",> 5000
7,"CCOC(=O)[C@H](CNC(=O)N(C)Cc1ccccc1)NC(=O)c1c(Cl)cc2c(c1Cl)CCN(Cc1cccc(Cl)c1)C2=O [SU15210-0270-01, (S)-ethyl 3-(3-benzyl-3-methylureido)-2-(5,7-dichloro-2-(3-chlorobenzyl)-1-oxo-1,2,3,4-tetrahydroisoquinoline-6-carboxamido)propanoate]",500 to 1000
